Measurements as given in ChEMBL document CHEMBL5463729, “Data for DCP probe BAY 1753011” (2023).
Blank lines part the entries; values can stand above or below the compound they belong to.

Assays:
[1] = target: Purinergic P2Y (Rattus norvegicus) (UniProt O35811+Q9EPX4+P49651+Q63371+P41232+O35881+Q6GUG4); test: Inhibition of Purinergic P2Y at compound concentration of 10.0 uM in the Eurofins-Panlabs radioligand binding assay (Eurofins_assay_268820); assay type: protein assay; parameters: ligand concentration 0.1 nM; conditions: Compound concentration 10.0 uM
[2] = target: Transient receptor potential cation channel subfamily M member 7 (Homo sapiens) (UniProt Q96QT4); test: Inhibition of ChaK1(h) at 10.0 µM in the Eurofins Kinase panel; conditions: Compound concentration 10.0 uM
[3] = target: Cannabinoid receptor 2 (Homo sapiens) (UniProt P34972); conditions: Compound concentration 10.0 uM
[4] = target: Serine/threonine-protein kinase Nek1 (Homo sapiens) (UniProt Q96PY6); test: Inhibition of NEK1(h) at 10.0 µM in the Eurofins Kinase panel; conditions: Compound concentration 10.0 uM
[5] = target: Gamma-aminobutyric acid type B receptor subunit 1 (Homo sapiens) (UniProt Q9UBS5); conditions: Rattus norvegicus; Compound concentration 10.0 uM
[6] = target: T1, Alpha-1A adrenergic receptor (Homo sapiens) (UniProt P35348); test: Inhibition of Adrenergic alpha1A at compound concentration of 10.0 uM in the Eurofins-Panlabs radioligand binding assay (Eurofins_assay_203110); parameters: ligand concentration 0.25 nM; conditions: Rattus norvegicus; Compound concentration 10.0 uM
T1 sequence (whole entry): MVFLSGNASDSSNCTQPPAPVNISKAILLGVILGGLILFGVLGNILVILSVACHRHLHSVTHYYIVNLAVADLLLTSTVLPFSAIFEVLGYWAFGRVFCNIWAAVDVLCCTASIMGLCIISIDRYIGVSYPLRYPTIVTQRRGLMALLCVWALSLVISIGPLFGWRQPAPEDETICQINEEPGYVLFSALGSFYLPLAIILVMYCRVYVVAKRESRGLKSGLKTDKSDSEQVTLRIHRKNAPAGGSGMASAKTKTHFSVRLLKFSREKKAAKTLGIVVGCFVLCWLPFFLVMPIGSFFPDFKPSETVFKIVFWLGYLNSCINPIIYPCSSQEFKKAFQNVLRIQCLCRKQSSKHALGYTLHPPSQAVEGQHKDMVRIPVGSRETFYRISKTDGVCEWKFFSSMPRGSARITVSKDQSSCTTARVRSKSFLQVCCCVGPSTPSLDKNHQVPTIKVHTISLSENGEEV

[7] = target: Platelet-derived growth factor receptor alpha (Homo sapiens) (UniProt P16234); test: Inhibition of PDGFRalpha(h) at 10.0 µM in the Eurofins Kinase panel; conditions: Compound concentration 10.0 uM
[8] = target: Serine/threonine-protein kinase ICK (Homo sapiens) (UniProt Q9UPZ9); test: Inhibition of ICK(h) at 10.0 µM in the Eurofins Kinase panel; conditions: Compound concentration 10.0 uM
[9] = target: T1, Alpha-1A adrenergic receptor (Homo sapiens); conditions: Compound concentration 10.0 uM
Homo sapiens = species: Homo sapiens; test: Inhibition of Nicotinic Acetylcholine at compound concentration of 10.0 uM in the Eurofins-Panlabs radioligand binding assay (Eurofins_assay_258590); assay type: protein-complex assay; conditions: Compound concentration 10.0 uM
[10] = target: Neuropeptide Y receptor type 2 (Homo sapiens) (UniProt P49146); test: Inhibition of Neuropeptide Y Y2 at 10 µM in the Eurofins-Panlabs radioligand binding assay (Eurofins_assay_257110); conditions: Compound concentration 10.0 uM
[11] = target: Cholecystokinin receptor type A (Homo sapiens) (UniProt P32238); test: Inhibition of Cholecystokinin CCK1 (CCKA) at 10 µM in the Eurofins-Panlabs radioligand binding assay (Eurofins_assay_218020); conditions: Compound concentration 10.0 uM
[12] = target: Phosphodiesterase 3 (Homo sapiens) (UniProt Q14432+Q13370); test: Inhibition of Phosphodiesterase PDE3 at compound concentration of 10.0 uM in the Eurofins-Panlabs enzyme assay (Eurofins_assay_152000); assay type: protein assay; parameters: substrate with concentration 1.01 uM [3H] cAMP + cAMP, incubation time 20 min, incubation temperature 25 C; conditions: Compound concentration 10.0 uM
[13] = target: GABA-A receptor; anion channel (Rattus norvegicus) (UniProt O09028+P15431+P18506+P18508+P19969+P20236+P23574+P23576+P28471+P28473+P30191+P62813+P63079+P63138+Q91ZM7+Q9ES14); test: Inhibition of GABAA, Muscimol, Central at 10 µM in the Eurofins-Panlabs radioligand binding assay (Eurofins_assay_226500); assay type: protein-complex assay; conditions: Compound concentration 10.0 uM
[14] = target: Mitogen-activated protein kinase 3 (Homo sapiens) (UniProt P27361); test: Inhibition of Protein Serine/Threonine Kinase, MAPK3 (ERK1) at 10 µM in the Eurofins-Panlabs enzyme assay (Eurofins_assay_171000); conditions: Compound concentration 10.0 uM
[15] = target: Sigma intracellular receptor 2 (Homo sapiens) (UniProt Q5BJF2); test: Inhibition of Sigma 2 at 10 µM in the Eurofins-Panlabs radioligand binding assay (Eurofins_assay_278200); parameters: ligand concentration 3 nM; conditions: Rattus norvegicus; Compound concentration 10.0 uM
[16] = target: RAC-alpha serine/threonine-protein kinase (Homo sapiens) (UniProt P31749); test: Inhibition of PKBalpha(h) at 10.0 µM in the Eurofins Kinase panel; conditions: Compound concentration 10.0 uM
[17] = target: T1, Alpha-1A adrenergic receptor (Homo sapiens); conditions: Rattus norvegicus; Compound concentration 10.0 uM
[18] = target: Polyunsaturated fatty acid lipoxygenase ALOX15 (Homo sapiens) (UniProt P16050); test: Inhibition of Lipoxygenase 15-LO at 10 µM in the Eurofins-Panlabs enzyme assay (Eurofins_assay_138000); conditions: Oryctolagus cuniculus; Compound concentration 10.0 uM
[19] = target: mTOR/FKBP12A/FKBP12B (Homo sapiens) (UniProt P62942+P68106+P42345); test: Inhibition of mTOR FKBP12(h) at 10.0 µM in the Eurofins Kinase panel; assay type: protein-complex assay; conditions: Compound concentration 10.0 uM
[20] = target: Mitogen-activated protein kinase 1 (Homo sapiens) (UniProt P28482); test: Inhibition of Protein Serine/Threonine Kinase, MAPK1 (ERK2) at 10 µM in the Eurofins-Panlabs enzyme assay (Eurofins_assay_171120); parameters: substrate with concentration; conditions: Compound concentration 10.0 uM
[21] = target: T2, D(4) dopamine receptor (Homo sapiens) (UniProt P21917); test: Inhibition of Dopamine D4.2 at 10 µM in the Eurofins-Panlabs radioligand binding assay (Eurofins_assay_219900); parameters: ligand concentration 0.5 nM; conditions: Compound concentration 10.0 uM
T2 sequence (whole entry): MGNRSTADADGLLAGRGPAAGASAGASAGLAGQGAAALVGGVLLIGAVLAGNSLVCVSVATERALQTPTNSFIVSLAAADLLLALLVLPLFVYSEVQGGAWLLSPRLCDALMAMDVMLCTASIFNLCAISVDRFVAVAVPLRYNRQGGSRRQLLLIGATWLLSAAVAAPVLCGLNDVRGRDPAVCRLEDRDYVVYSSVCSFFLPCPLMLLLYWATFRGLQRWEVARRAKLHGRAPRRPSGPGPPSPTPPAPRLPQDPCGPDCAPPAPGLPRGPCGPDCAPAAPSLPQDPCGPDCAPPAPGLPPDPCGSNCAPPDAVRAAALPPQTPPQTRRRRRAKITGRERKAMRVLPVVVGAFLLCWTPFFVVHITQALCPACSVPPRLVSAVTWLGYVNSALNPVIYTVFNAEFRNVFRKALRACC

[22] = target: Neuropeptide Y receptor type 1 (Homo sapiens) (UniProt P25929); test: Inhibition of Neuropeptide Y Y1 at 10 µM in the Eurofins-Panlabs radioligand binding assay (Eurofins_assay_257010); conditions: Compound concentration 10.0 uM
Sequence of Neuropeptide Y receptor type 1 (Homo sapiens) (P25929 whole entry): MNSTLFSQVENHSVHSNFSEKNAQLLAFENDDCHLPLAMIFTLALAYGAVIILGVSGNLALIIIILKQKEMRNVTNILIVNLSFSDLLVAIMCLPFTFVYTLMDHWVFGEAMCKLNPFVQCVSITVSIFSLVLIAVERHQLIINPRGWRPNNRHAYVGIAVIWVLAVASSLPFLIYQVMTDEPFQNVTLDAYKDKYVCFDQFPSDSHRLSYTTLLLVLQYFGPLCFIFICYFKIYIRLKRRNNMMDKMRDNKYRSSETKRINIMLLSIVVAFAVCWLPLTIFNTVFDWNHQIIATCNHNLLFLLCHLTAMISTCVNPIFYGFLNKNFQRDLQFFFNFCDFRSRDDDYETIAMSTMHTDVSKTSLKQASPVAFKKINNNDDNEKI

Sequence of Sigma intracellular receptor 2 (Homo sapiens) (Q5BJF2 whole entry): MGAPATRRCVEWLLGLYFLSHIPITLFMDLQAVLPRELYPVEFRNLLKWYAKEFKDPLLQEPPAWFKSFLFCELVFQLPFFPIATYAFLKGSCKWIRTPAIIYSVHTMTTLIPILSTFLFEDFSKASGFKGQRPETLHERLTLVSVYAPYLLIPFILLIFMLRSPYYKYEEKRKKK
Sequence of Cannabinoid receptor 2 (Homo sapiens) (P34972 whole entry): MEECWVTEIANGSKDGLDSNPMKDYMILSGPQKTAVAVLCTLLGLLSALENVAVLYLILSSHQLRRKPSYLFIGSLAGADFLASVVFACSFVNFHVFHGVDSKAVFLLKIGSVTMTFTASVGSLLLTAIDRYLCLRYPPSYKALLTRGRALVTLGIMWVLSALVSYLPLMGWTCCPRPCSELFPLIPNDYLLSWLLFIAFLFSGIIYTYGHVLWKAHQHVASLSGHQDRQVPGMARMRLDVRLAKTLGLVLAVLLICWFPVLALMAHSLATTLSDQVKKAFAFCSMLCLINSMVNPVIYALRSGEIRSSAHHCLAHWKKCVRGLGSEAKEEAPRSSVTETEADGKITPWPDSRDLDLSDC
Sequence of Serine/threonine-protein kinase ICK (Homo sapiens) (Q9UPZ9 whole entry): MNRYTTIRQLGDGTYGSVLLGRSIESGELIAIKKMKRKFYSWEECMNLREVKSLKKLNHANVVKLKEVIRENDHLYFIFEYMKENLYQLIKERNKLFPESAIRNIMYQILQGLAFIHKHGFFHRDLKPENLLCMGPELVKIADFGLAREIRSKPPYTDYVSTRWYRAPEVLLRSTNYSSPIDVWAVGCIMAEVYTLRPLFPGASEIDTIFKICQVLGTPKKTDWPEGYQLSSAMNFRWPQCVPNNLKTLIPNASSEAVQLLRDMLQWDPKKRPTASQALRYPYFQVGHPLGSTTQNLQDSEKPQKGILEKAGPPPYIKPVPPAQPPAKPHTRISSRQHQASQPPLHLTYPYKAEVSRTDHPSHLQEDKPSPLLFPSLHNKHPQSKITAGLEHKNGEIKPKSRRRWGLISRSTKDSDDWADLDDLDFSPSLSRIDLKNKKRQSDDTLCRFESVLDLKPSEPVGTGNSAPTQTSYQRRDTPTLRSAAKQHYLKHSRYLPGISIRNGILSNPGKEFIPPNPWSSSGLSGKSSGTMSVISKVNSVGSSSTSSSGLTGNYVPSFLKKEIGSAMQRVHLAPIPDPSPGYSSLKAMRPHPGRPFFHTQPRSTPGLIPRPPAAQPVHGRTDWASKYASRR
Sequence of Polyunsaturated fatty acid lipoxygenase ALOX15 (Homo sapiens) (P16050 whole entry): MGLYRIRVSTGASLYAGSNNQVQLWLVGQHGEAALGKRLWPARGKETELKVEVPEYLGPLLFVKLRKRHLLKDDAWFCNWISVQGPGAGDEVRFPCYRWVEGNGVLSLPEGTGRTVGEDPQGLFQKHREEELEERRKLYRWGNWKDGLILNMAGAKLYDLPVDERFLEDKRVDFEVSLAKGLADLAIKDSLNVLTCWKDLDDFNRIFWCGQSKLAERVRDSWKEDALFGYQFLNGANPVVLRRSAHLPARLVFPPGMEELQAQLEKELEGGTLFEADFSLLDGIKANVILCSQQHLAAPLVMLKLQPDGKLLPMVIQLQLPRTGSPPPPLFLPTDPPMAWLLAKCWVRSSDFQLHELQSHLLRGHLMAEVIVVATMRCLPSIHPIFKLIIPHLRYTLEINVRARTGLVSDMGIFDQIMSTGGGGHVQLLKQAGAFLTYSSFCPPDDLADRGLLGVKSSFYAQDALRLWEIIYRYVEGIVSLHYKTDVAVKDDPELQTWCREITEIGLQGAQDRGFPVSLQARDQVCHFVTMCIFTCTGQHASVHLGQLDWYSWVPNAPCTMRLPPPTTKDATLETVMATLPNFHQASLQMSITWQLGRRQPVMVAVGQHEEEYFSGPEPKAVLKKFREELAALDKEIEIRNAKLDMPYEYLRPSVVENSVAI
Sequence of mTOR/FKBP12A/FKBP12B (Homo sapiens) (P62942 2-108 limits assumed, other chains not shown): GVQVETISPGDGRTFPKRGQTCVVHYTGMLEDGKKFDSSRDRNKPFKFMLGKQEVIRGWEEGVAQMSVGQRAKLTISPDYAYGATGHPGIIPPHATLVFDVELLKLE
Sequence of mTOR/FKBP12A/FKBP12B (Homo sapiens) (P68106 whole entry partner, other chains not shown): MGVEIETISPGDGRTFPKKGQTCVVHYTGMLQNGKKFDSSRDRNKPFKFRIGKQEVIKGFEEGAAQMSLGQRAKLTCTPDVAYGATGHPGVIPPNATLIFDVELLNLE
Sequence of Serine/threonine-protein kinase Nek1 (Homo sapiens) (Q96PY6 whole entry): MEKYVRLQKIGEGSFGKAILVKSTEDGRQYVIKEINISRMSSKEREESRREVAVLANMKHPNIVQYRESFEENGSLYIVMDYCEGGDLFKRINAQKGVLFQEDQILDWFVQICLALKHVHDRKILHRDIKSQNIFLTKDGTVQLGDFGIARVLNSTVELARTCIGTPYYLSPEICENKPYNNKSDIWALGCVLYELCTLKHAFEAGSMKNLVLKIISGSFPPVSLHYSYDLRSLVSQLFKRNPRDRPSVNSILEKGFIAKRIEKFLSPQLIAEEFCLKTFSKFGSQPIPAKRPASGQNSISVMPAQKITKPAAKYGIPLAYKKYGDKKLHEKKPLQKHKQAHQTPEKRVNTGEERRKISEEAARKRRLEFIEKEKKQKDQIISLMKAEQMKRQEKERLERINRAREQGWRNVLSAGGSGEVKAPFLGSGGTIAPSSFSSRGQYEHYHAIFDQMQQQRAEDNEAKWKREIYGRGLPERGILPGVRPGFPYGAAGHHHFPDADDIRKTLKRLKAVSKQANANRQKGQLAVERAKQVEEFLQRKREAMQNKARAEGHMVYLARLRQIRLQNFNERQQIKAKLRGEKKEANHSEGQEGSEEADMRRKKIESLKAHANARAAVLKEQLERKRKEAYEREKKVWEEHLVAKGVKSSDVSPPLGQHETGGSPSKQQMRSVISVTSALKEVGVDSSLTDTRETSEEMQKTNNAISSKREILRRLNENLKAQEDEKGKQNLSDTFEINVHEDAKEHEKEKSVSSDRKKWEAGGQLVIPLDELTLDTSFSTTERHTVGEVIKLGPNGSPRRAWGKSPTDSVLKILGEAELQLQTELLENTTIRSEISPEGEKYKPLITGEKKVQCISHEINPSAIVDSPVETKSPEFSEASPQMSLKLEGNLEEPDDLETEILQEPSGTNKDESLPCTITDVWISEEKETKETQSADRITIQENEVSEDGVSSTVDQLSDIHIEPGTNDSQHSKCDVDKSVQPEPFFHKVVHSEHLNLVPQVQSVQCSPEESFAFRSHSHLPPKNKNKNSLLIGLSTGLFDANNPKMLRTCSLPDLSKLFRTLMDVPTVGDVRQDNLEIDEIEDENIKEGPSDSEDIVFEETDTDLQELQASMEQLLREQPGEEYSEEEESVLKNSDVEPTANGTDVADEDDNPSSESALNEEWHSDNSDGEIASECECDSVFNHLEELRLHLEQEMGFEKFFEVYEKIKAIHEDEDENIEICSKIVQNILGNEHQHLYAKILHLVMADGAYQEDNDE
Sequence of Platelet-derived growth factor receptor alpha (Homo sapiens) (P16234 whole entry): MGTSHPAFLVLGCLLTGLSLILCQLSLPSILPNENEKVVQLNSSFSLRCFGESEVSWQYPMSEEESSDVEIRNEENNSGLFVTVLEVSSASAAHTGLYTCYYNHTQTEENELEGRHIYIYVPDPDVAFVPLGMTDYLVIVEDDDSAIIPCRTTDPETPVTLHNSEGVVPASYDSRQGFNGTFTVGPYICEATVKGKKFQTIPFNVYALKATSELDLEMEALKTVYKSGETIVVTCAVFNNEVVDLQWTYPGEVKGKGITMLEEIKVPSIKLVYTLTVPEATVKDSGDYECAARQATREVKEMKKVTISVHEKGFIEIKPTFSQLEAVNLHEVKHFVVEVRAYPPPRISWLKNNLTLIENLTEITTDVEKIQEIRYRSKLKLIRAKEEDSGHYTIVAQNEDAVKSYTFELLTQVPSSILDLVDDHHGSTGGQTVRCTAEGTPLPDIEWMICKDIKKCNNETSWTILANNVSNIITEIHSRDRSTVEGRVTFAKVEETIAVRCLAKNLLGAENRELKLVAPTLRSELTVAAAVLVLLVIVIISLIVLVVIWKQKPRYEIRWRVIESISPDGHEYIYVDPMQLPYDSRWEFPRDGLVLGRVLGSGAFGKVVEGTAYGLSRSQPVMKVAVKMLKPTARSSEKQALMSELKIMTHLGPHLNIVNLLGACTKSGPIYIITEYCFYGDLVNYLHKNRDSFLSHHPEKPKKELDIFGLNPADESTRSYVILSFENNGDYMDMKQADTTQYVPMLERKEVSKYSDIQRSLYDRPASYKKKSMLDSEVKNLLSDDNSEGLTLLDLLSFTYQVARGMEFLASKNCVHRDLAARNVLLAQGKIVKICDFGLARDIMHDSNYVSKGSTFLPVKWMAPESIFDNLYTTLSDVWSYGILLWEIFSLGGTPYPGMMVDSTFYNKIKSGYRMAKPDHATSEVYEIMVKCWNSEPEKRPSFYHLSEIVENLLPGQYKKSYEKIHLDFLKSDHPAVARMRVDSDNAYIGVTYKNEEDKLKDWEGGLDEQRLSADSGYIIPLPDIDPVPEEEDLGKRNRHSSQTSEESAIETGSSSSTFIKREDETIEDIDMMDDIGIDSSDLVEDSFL

inhibition [1]: 4% | inhibition [2]: -0.03% | inhibition [3]: 14% | inhibition [4]: 5.54% | inhibition [5]: 8% | inhibition [6]: 3% | inhibition [7]: -5.3% | inhibition [8]: -9.83%
SMILES: O=c1n(Cc2cncn2-c2cccc(Cl)c2)nc(-c2ccc(Cl)cc2)n1C[C@H](O)C(F)(F)F

SMILES: C[C@H](O)c1nc(Cn2nc(-c3ccc(Cl)cc3)n(C[C@H](O)C(F)(F)F)c2=O)nn1-c1cccc(Cl)c1 [PECAVAPTAN]
inhibition [9]: -2.04% | inhibition (Homo sapiens): -6% | inhibition [10]: 6% | inhibition [11]: 15% | inhibition [12]: 0% | inhibition [13]: -2% | inhibition [14]: -7% | inhibition [15]: 5% | inhibition [16]: -3.88% | inhibition [17]: 23% | inhibition [18]: 4% | inhibition [19]: 2.46% | inhibition [20]: -2% | inhibition [21]: 3% | inhibition [22]: 11%
